Measurements as given in patent US7378406B2, “Use of antiprogestins for prophylaxis and treatment of hormone-dependent diseases” (Schering AG, priority 2000, dated 2008).

Assays:
[1] = system: DMBA-induced mammary carcinoma of the rat; assay: DMBA-induced breast cancer model in rat (prevention experiment); format: in vivo, rat (female Sprague-Dawley); settings: 6 days/week, start 20 days after DMBA, end of experiment
Experimental: Immature female Sprague-Dawley rats (49-51 days old; 10 animals/group) were used in this study. The carcinogen 7,12-dimethylbenz[a]anthracene (DMBA) was given as a single oral administration (10 mg). Treatment was started 20 days later as followed: 1) solvent control, 2) ovariectomy at treatment start, 3) tamoxifen, 1 mg/kg s.c., 4) antiprogestin (I), 3 mg/kg, s.c., 6 days/week. Rats were examined weekly for breast tumors by palpation. As a parameter for the prophylactic effect the tumor incidence (number of animals/group with tumors in %) was determined. For a further description and evaluation of DMBA and NMU prevention models, see R. G. Metha, European Journal of Cancer 36 (2000), pp. 1275-1282.

[2] = system: DMBA-induced mammary carcinoma of the rat; assay: DMBA-induced breast cancer model in rat (therapy experiment/dose-response study); format: in vivo, rat (female Sprague-Dawley)
Experimental: Immature female Sprague-Dawley rats (49-51 days old; 10 animals/group) were used in this study. Mammary tumors were induced by a single oral administration of 10 mg 7,12-dimethylbenz[a]anthracene (DMBA, Serva/Heidelberg). Rats with at least one established tumor with a size of more than 150 mm^2 were treated for 4 weeks by: 1) solvent control, 2) ovariectomy at treatment start, 3) antiprogestin (I), 0.5 mg/kg s.c., 4) antiprogestin (I), 2 mg/kg s.c., 5) antiprogestin (I), 5 mg/kg s.c., 6) antiprogestin (I), 10 mg/kg s.c., and 7) onapristone, 5 mg/kg, s.c., daily. As a parameter for growth inhibition the change of tumor area (in % with respect to initial tumor size) determined by weekly caliper measurements was used. For statistical analysis of intergroup differences of mean values the Kruskal-Wallis-test was used.

[3] = system: NMU-induced mammary carcinoma of the rat; assay: NMU-induced breast cancer model in rat (therapy experiment); format: in vivo, rat (female Sprague-Dawley); settings: 4 weeks
Experimental: Tumors were induced by a single intravenous injection of NMU (nitrosomethylurea, 50 mg/kg) in female Sprague-Dawley rats (obtained from Tierzucht Schönwalde, age 50-55 days). Starting 10 days later, rats with at least one established tumor were treated for 4 weeks by: 1) solvent control, 2) ovariectomy at treatment start, 3) antiprogestin (I), 1.0 mg/kg/day, 4) antiprogestin (I), 0.5 mg/kg/day and 5) onapristone, 5 mg/kg/day. As a parameter for growth inhibition the change of tumor area (in % of initial tumor size) determined by weekly caliper measurements was used. For statistical analysis of intergroup differences of mean values the Kruskal-Wallis-test was used.

[4] = system: NMU-induced mammary carcinoma of the rat; assay: NMU-induced breast cancer model in rat (prevention experiment); format: in vivo, rat (female Sprague-Dawley); settings: 3 mg/kg s.c., 6 days/week, start 10 days after NMU; end of experiment, after 27 weeks
Experimental: Tumors were induced by a single intravenous injection of NMU (nitrosomethylurea, 50 mg/kg) in female Sprague-Dawley rats (obtained from Tierzucht Schonwalde, age 50-55 days). Treatment was started 10 days later as followed: 1) solvent control, 2) ovariectomy at treatment start, 3) tamoxifen, 3 mg/kg s.c., 4) antiprogestin (I), 3 mg/kg, s.c., 5) letrozole, 3 mg/kg s.c., 6) raloxifen, 3 mg/kg s.c., 6 days/week. Rats were examined weekly for breast tumors by palpation. As a parameter for the prophylactic effect the tumor incidence (number of animals/group with tumors in %) was determined. For a further description and evaluation of DMBA and NMU prevention models, see R. G. Metha, European Journal of Cancer 36 (2000), pp. 1275-1282.

T47D breast cancer cells = assay: T47D human xenograft (therapy experiment); format: in vivo, human xenograft in Fox Chase scid mice; settings: 10 mg/kg s.c.; scid mice with estradiol pellets
Experimental: (§1) Female Fox Chase scid mice (M&B) were supplemented with estradiol pellets (Innovative Research of America). T47D breast cancer cells, obtained from cell culture and suspended in matrigel, were implanted s.c. in the inguinal region of the mice. Treatment was started when the tumors were approximately 25 mm^2 in size. Treatment was continued until progression of the tumors. Experimental groups were: 1) control (vehicle), 2) ovariectomy, 3) antiprogestin (I), 10 mg/kg s.c.Tumor area was determined by caliper measurements. The Kruskal Wallis test was used for statistical analysis of intergroup differences of mean values.

MCF7 breast cancer cells = assay: MCF7 human xenograft (therapy experiment); format: in vivo, human xenograft in Fox Chase scid mice; settings: 10 mg/kg s.c.; scid mice with estradiol pellets
Experimental: as §1, with “MCF7” for “T47D”, “s.c. Tumor” for “s.c.Tumor”

[5] = Further endocrine side effects (general statement)
[6] = Bioavailability (general statement); format: in vivo; settings: oral administration

## CC/C(=C(\c1ccccc1)c1ccc(OCCN(C)C)cc1)c1ccccc1 [tamoxifen, reference compound]
[1]; 1 mg/kg s.c.
  tumor incidence (number of animals/group with tumors in %): 60%

## CN(C)c1ccc([C@H]2C[C@]3(C)[C@@H](CC[C@]3(O)CCCO)[C@@H]3CCC4=CC(=O)CCC4=C32)cc1 [Onapristone, onapristone, reference compound]
[2]; 5 mg/kg s.c. daily, 4 weeks
  tumor growth inhibition relative to antiprogestin (I): distinctly less effective than antiprogestin (I) at comparable doses
[3]; 5 mg/kg/day
  tumor growth inhibition relative to antiprogestin (I) at 0.5 mg/kg: distinctly less effective than antiprogestin (I)

## CC(=O)c1ccc([C@H]2C[C@@]3(C)[C@@H](CC[C@@]3(O)C(F)(F)C(F)(F)F)[C@@H]3CCC4=CC(=O)CCC4=C32)cc1 [antiprogestin (I), 11β-(4-acetylphenyl)-17β-hydroxy-17α-(1,1,2,2,2-pentafluoroethyl)-estra-4,9-dien-3-one]
[1]; 3 mg/kg s.c., after 22 weeks
  tumor incidence (number of animals/group with tumors in %): 10%
[2]; 0.5 mg/kg s.c. daily, 4 weeks
  tumor growth (change of tumor area) compared with the control: did not significantly prevent the tumor from growing
[2]; 2 mg/kg s.c. daily, 4 weeks
  rats with complete tumor regression: 50%
  tumor growth (change of tumor area), dose-response: maximal growth inhibition
[2]; 10 mg/kg s.c. daily, 4 weeks (highest dose)
  tumor growth (change of tumor area), dose-response: comparable to that of 2 mg/kg
[2]; doses of or above 2 mg/kg s.c. daily, 4 weeks
  tumor growth (change of tumor area) compared with the control: significant inhibition of tumor growth
[4]
  tumor incidence (number of animals/group with tumors in %): 10%
[3]; 0.5 mg/kg/day
  tumor growth (change of tumor area) compared with the control: significant inhibition of tumor growth
[3]; 1.0 mg/kg/day
  tumor growth (change of tumor area) compared with the control: significant inhibition of tumor growth
T47D breast cancer cells
  tumor growth (tumor area): inhibition of tumor growth, almost comparable to the effect of conventional estrogen deprivation therapy (ovariectomy)
MCF7 breast cancer cells
  tumor growth (tumor area): inhibition of tumor growth, almost comparable to the effect of conventional estrogen deprivation therapy (ovariectomy)
[5]
  further endocrine side effects, e.g. androgen, estrogen or antiglucocorticoid activity: only very weak, if present at all
[6]
  bioavailability: high
